According to patent publication US10227331B2 (priority 2015, dated 2019):
Where a name gives a salt, the structure may show the parent alone. Read-outs that look alike come from different tables or passages of the source.

What was measured:
[1] = system: P. aeruginosa expressing IMP-1, efflux+ (MB9798); assay type: cell-based, Pseudomonas aeruginosa; conditions: for P. aeruginosa expressing IMP-1, efflux+ (MB9798) MITC95: imipenem at 2 μg/mL, in the presence of a class A, C, D serine β-lactamase inhibitor closely related to relebactam; for Efflux ratio: ratio MITC95 PA_9798/MITC95 PA_9799
From the text: (§1) The strain background is Pseudomonas aeruginosa PAO1.

IMP-1 = IMP-1 (Serratia marcescens, UniProt P52699); assay: biochemical; assay type: biochemical
Method in brief: (§2)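 Semi-log dose-response curves, fitted with a 4-parameter model, gave IC50s. The underlying signal was CCF2-FA fluorescence following 2 hours at 25° C with enzyme, substrate and inhibitor combined.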

NDM-1 = NDM-1 (Klebsiella pneumoniae, UniProt C7C422); assay: biochemical; assay type: biochemical; conditions: CCF2-FA substrate, 2 hours at 25° C; read-out: NDM-1 IC50
Method in brief: as §2

[2] = system: P. aeruginosa expressing IMP-1, efflux− (MB9799); assay: Efflux: concentration of MBL inhibitor which restores susceptibility to imipenem; assay type: cell-based, Pseudomonas aeruginosa; conditions: imipenem at 2 μg/mL, in the presence of a class A, C, D serine β-lactamase inhibitor closely related to relebactam
From the text: as §1

VIM-1 = VIM-1 (Pseudomonas aeruginosa (strain ATCC 15692 / DSM 22644 / CIP 104116 / JCM 14847 / LMG 12228 / 1C / PRS 101 / PAO1), UniProt A0A0F7KYQ8); assay: biochemical; conditions: CCF2-FA substrate, 2 hours at 25° C
Method in brief: as §2

[3] = system: Escherichia coli expressing NDM-1 (CLB30005, CLB30016); assay type: cell-based; conditions: with imipenem 1 μg/ml; 95% inhibition of bacterial growth
Method in brief: (§3)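 Restoration of imipenem susceptibility (1 μg/ml imipenem) was judged by absorbance after 22–24 h at 35° C. Test compound was added to bacteria suspended 1:100 in 1.1× CAMHB from overnight blood-agar cultures.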

[4] = system: Klebsiella pneumoniae expressing VIM-1 (IHMA599644); assay type: cell-based; conditions: with imipenem 1 μg/ml; 95% inhibition of bacterial growth
Method in brief: as §3

[5] = system: Serratia marcescens expressing IMP-1 (CL5741); assay type: cell-based; conditions: with imipenem 1 μg/ml; 95% inhibition of bacterial growth
Method in brief: as §3

[6] = CCF2-FA substrate, 2 hours at 25° C, read-out: IMP-1 IC50

Sequence of IMP-1 (P52699 whole entry, looked up, species assumed): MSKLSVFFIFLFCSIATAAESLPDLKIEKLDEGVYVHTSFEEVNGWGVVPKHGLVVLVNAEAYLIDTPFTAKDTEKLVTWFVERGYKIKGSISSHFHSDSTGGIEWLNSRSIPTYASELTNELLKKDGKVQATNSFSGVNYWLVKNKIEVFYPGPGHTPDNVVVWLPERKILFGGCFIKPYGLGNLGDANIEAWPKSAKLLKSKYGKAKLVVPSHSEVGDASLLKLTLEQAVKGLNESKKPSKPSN
Sequence of NDM-1 (C7C422 whole entry, looked up, species assumed): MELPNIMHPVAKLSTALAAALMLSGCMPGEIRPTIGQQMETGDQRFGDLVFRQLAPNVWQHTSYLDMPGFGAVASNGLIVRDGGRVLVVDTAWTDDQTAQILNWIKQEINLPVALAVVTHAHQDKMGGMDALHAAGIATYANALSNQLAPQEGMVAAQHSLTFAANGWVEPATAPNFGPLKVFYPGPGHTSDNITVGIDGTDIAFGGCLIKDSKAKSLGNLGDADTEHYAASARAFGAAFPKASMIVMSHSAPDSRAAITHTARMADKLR

NCCS(=O)(=O)c1ccc(-c2cncc3sc(N)nc23)c(-c2nn[nH]n2)c1S(N)(=O)=O [Example 81, 6-((2-aminoethyl)sulfonyl)-3-(2-aminothiazolo[5,4-c]pyridin-7-yl)-2-(2H-tetrazol-5-yl)benzenesulfonamide hydrochloride]
P. aeruginosa expressing IMP-1, efflux+ (MB9798) MITC95 [1]: 0.7813 µM
Efflux ratio [1]: 1.00
IC50 (IMP-1): 0.266 nM
IC50 (NDM-1): 0.29 nM
P. aeruginosa expressing IMP-1, efflux− (MB9799) MITC95 [2]: 0.7813 µM
IC50 (VIM-1): 0.356 nM
Escherichia coli expressing NDM-1 (CLB30016) MITC95 [3]: 0.7813 µM
Klebsiella pneumoniae expressing VIM-1 (IHMA599644) MITC95 [4]: 3.125 µM
Serratia marcescens expressing IMP-1 (CL5741) MITC95 [5]: 1.563 µM

CC(=O)Nc1nc2c(-c3ccc(S(=O)(=O)CCN)c(S(N)(=O)=O)c3-c3nn[nH]n3)cccc2s1 [Example 82, N-(4-(4-(2-aminoethylsulfonyl)-3-sulfamoyl-2-(2H-tetrazol-5-yl)phenyl)benzo[d]thiazol-2-yl)acetamide]
P. aeruginosa expressing IMP-1, efflux+ (MB9798) MITC95 [1]: 3.125 µM
Efflux ratio [1]: 2.00
IC50 (IMP-1; [6]): 0.194 nM
IC50 (NDM-1): 0.0871 nM
P. aeruginosa expressing IMP-1, efflux− (MB9799) MITC95 [2]: 1.563 µM
IC50 (VIM-1): 0.131 nM
Escherichia coli expressing NDM-1 (CLB30016) MITC95 [3]: 1.563 µM
Klebsiella pneumoniae expressing VIM-1 (IHMA599644) MITC95 [4]: 3.125 µM
Serratia marcescens expressing IMP-1 (CL5741) MITC95 [5]: 1.563 µM

CS(=O)(=O)Nc1nc2c(-c3ccc(S(=O)(=O)CCN)c(S(N)(=O)=O)c3-c3nn[nH]n3)cccc2s1 [Example 83, 6-(2-aminoethylsulfonyl)-3-(2-(methylsulfonamido)benzo[d]thiazol-4-yl)-2-(2H-tetrazol-5-yl)benzenesulfonamide]
P. aeruginosa expressing IMP-1, efflux+ (MB9798) MITC95 [1]: 12.5 µM
Efflux ratio [1]: 2.00
IC50 (IMP-1; [6]): 0.341 nM
IC50 (NDM-1): 0.117 nM
P. aeruginosa expressing IMP-1, efflux− (MB9799) MITC95 [2]: 6.25 µM
IC50 (VIM-1): 0.263 nM
Escherichia coli expressing NDM-1 (CLB30016) MITC95 [3]: 6.25 µM
Klebsiella pneumoniae expressing VIM-1 (IHMA599644) MITC95 [4]: 12.5 µM
Serratia marcescens expressing IMP-1 (CL5741) MITC95 [5]: 6.25 µM

CCOC(=O)Nc1nc2c(-c3ccc(S(=O)(=O)CCN)c(S(N)(=O)=O)c3-c3nn[nH]n3)cccc2s1 [Example 84, ethyl 4-(4-(2-aminoethylsulfonyl)-3-sulfamoyl-2-(2H-tetrazol-5-yl)phenyl)benzo[d]thiazol-2-ylcarbamate]
P. aeruginosa expressing IMP-1, efflux+ (MB9798) MITC95 [1]: 6.25 µM
Efflux ratio [1]: 4.00
IC50 (IMP-1; [6]): 0.145 nM
IC50 (NDM-1): 0.0781 nM
P. aeruginosa expressing IMP-1, efflux− (MB9799) MITC95 [2]: 1.563 µM
IC50 (VIM-1): 0.14 nM
Escherichia coli expressing NDM-1 (CLB30016) MITC95 [3]: 1.563 µM
Klebsiella pneumoniae expressing VIM-1 (IHMA599644) MITC95 [4]: 3.125 µM
Serratia marcescens expressing IMP-1 (CL5741) MITC95 [5]: 1.563 µM

NCCS(=O)(=O)c1ccc(-c2cccc3sc(NC(N)=O)nc23)c(-c2nn[nH]n2)c1S(N)(=O)=O [Example 85, 6-(2-aminoethylsulfonyl)-2-(2H-tetrazol-5-yl)-3-(2-ureidobenzo[d]thiazol-4-yl)benzenesulfonamide]
P. aeruginosa expressing IMP-1, efflux+ (MB9798) MITC95 [1]: 1.563 µM
Efflux ratio [1]: 2.00
IC50 (IMP-1; [6]): 0.144 nM
IC50 (NDM-1): 0.0511 nM
P. aeruginosa expressing IMP-1, efflux− (MB9799) MITC95 [2]: 0.7813 µM
IC50 (VIM-1): 0.0858 nM
Escherichia coli expressing NDM-1 (CLB30016) MITC95 [3]: 0.3906 µM
Klebsiella pneumoniae expressing VIM-1 (IHMA599644) MITC95 [4]: 1.563 µM
Serratia marcescens expressing IMP-1 (CL5741) MITC95 [5]: 0.7813 µM

N=C(N)c1nc2c(-c3ccc(S(=O)(=O)CCN)c(S(N)(=O)=O)c3-c3nn[nH]n3)cccc2s1 [Example 86, 4-(4-(2-aminoethylsulfonyl)-3-sulfamoyl-2-(2H-tetrazol-5-yl)phenyl)benzo[d]thiazole-2-carboximidamide]
P. aeruginosa expressing IMP-1, efflux+ (MB9798) MITC95 [1]: 1.563 µM
Efflux ratio [1]: 4.00
IC50 (IMP-1; [6]): 0.869 nM
IC50 (NDM-1): 0.295 nM
P. aeruginosa expressing IMP-1, efflux− (MB9799) MITC95 [2]: 0.3906 µM
IC50 (VIM-1): 0.141 nM
Escherichia coli expressing NDM-1 (CLB30016) MITC95 [3]: 0.7813 µM
Klebsiella pneumoniae expressing VIM-1 (IHMA599644) MITC95 [4]: 0.7813 µM
Serratia marcescens expressing IMP-1 (CL5741) MITC95 [5]: 0.7813 µM

NCCS(=O)(=O)c1ccc(-c2cccc3sc(CN)nc23)c(-c2nn[nH]n2)c1S(N)(=O)=O [Example 87, 6-(2-aminoethylsulfonyl)-3-(2-(aminomethyl)benzo[d]thiazol-4-yl)-2-(2H-tetrazol-5-yl)benzenesulfonamide]
P. aeruginosa expressing IMP-1, efflux+ (MB9798) MITC95 [1]: 0.7813 µM
Efflux ratio [1]: 2.00
IC50 (IMP-1; [6]): 0.562 nM
IC50 (NDM-1): 0.475 nM
P. aeruginosa expressing IMP-1, efflux− (MB9799) MITC95 [2]: 0.3906 µM
IC50 (VIM-1): 0.133 nM
Escherichia coli expressing NDM-1 (CLB30016) MITC95 [3]: 0.7813 µM
Klebsiella pneumoniae expressing VIM-1 (IHMA599644) MITC95 [4]: 0.7813 µM
Serratia marcescens expressing IMP-1 (CL5741) MITC95 [5]: 0.7813 µM

NCCS(=O)(=O)c1ccc(-c2cccc3sc(C(=O)O)nc23)c(-c2nn[nH]n2)c1S(N)(=O)=O [Example 88, 4-(4-(2-aminoethylsulfonyl)-3-sulfamoyl-2-(2H-tetrazol-5-yl)phenyl)benzo[d]thiazole-2-carboxylic acid]
P. aeruginosa expressing IMP-1, efflux+ (MB9798) MITC95 [1]: 6.25 µM
Efflux ratio [1]: 2.00
IC50 (IMP-1; [6]): 0.144 nM
IC50 (NDM-1): 0.0522 nM
P. aeruginosa expressing IMP-1, efflux− (MB9799) MITC95 [2]: 3.125 µM
IC50 (VIM-1): 0.158 nM
Escherichia coli expressing NDM-1 (CLB30016) MITC95 [3]: 1.563 µM
Klebsiella pneumoniae expressing VIM-1 (IHMA599644) MITC95 [4]: 12.5 µM
Serratia marcescens expressing IMP-1 (CL5741) MITC95 [5]: 6.25 µM

NCCS(=O)(=O)c1ccc(-c2cccc3sc(C(N)=O)nc23)c(-c2nn[nH]n2)c1S(N)(=O)=O [Example 89, 4-(4-(2-aminoethylsulfonyl)-3-sulfamoyl-2-(2H-tetrazol-5-yl)phenyl)benzo[d]thiazole-2-carboxamide]
P. aeruginosa expressing IMP-1, efflux+ (MB9798) MITC95 [1]: 3.125 µM
Efflux ratio [1]: 2.00
IC50 (IMP-1; [6]): 0.601 nM
IC50 (NDM-1): 0.277 nM
P. aeruginosa expressing IMP-1, efflux− (MB9799) MITC95 [2]: 1.563 µM
IC50 (VIM-1): 0.152 nM
Escherichia coli expressing NDM-1 (CLB30016) MITC95 [3]: 1.563 µM
Klebsiella pneumoniae expressing VIM-1 (IHMA599644) MITC95 [4]: 3.125 µM
Serratia marcescens expressing IMP-1 (CL5741) MITC95 [5]: 1.563 µM

CNc1nc2c(-c3ccc(S(=O)(=O)CCN)c(S(N)(=O)=O)c3-c3nn[nH]n3)cccc2s1 [Example 90, 6-(2-aminoethylsulfonyl)-3-(2-(methylamino)benzo[d]thiazol-4-yl)-2-(2H-tetrazol-5-yl)benzene sulfonamide]
P. aeruginosa expressing IMP-1, efflux+ (MB9798) MITC95 [1]: 1.563 µM
Efflux ratio [1]: 2.00
IC50 (IMP-1; [6]): 0.0995 nM
IC50 (NDM-1): 0.0746 nM
P. aeruginosa expressing IMP-1, efflux− (MB9799) MITC95 [2]: 0.7813 µM
IC50 (VIM-1): 0.146 nM
Escherichia coli expressing NDM-1 (CLB30016) MITC95 [3]: 0.7813 µM
Klebsiella pneumoniae expressing VIM-1 (IHMA599644) MITC95 [4]: 1.563 µM
Serratia marcescens expressing IMP-1 (CL5741) MITC95 [5]: 1.563 µM

NCCS(=O)(=O)c1ccc(-c2cccc3[nH]c(C(=O)O)nc23)c(-c2nn[nH]n2)c1S(N)(=O)=O [Example 91, 4-(4-((2-aminoethyl)sulfonyl)-3-sulfamoyl-2-(2H-tetrazol-5-yl)phenyl)-1H-benzo[d]imidazole-2-carboxylic Acid]
P. aeruginosa expressing IMP-1, efflux+ (MB9798) MITC95 [1]: 0.7813 µM
Efflux ratio [1]: 1.00
IC50 (IMP-1; [6]): 0.386 nM
IC50 (NDM-1): 0.189 nM
P. aeruginosa expressing IMP-1, efflux− (MB9799) MITC95 [2]: 0.7813 µM
IC50 (VIM-1): 0.239 nM
Escherichia coli expressing NDM-1 (CLB30016) MITC95 [3]: 1.172 µM
Klebsiella pneumoniae expressing VIM-1 (IHMA599644) MITC95 [4]: 2.344 µM
Serratia marcescens expressing IMP-1 (CL5741) MITC95 [5]: 1.563 µM
